Data set [1] addresses T1, Cytochrome P450 11B1, mitochondrial (Homo sapiens, UniProt P15538).
T1 sequence (P15538 whole entry): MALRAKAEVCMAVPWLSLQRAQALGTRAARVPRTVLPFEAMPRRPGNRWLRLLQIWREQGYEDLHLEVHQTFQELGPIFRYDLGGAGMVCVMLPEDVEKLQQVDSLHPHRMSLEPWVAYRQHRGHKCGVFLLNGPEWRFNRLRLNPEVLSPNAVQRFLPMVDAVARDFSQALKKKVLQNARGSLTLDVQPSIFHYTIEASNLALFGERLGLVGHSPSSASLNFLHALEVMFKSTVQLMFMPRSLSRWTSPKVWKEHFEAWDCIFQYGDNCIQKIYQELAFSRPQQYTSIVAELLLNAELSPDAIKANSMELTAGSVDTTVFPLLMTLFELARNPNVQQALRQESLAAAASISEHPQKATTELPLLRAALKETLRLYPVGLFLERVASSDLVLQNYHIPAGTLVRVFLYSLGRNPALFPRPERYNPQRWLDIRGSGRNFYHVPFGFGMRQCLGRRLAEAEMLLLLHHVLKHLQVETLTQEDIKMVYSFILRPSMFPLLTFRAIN
Nature of the data set: (§1) Inhibition of CYP11B1 […] cells using [3H]-11-deoxycorticosterone as substrate incubated for 1 hr prior to substrate addition measured after 25 mins by HPLC analysis. The data set is classed as cell-based.

The target in data set [2] is T2, Cytochrome P450 11B2, mitochondrial (Homo sapiens, UniProt P19099).
T2 sequence (P19099 whole entry): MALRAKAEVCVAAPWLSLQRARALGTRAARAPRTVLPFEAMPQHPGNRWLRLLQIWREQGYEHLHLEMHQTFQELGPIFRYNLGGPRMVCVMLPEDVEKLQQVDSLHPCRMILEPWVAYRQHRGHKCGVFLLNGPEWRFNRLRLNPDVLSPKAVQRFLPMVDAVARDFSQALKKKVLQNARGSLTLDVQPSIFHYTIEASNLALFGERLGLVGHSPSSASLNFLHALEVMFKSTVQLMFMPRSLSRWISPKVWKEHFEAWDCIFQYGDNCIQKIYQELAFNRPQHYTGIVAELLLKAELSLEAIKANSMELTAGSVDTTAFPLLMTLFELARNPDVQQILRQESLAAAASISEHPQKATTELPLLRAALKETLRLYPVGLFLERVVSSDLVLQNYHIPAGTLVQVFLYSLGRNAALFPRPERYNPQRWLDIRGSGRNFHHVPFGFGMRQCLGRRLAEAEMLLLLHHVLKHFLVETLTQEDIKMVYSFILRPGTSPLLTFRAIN
Nature of the data set: Inhibition of CYP11B2 […] cells using [3H]-11-deoxycorticosterone as substrate incubated for 1 hr prior to substrate addition measured after 45 mins by HPLC analysis. Type of data set: cell-based.

In another data set the target is T3, CYP19 (aromatase) (Homo sapiens, UniProt P11511).
T3 sequence (P11511 whole entry): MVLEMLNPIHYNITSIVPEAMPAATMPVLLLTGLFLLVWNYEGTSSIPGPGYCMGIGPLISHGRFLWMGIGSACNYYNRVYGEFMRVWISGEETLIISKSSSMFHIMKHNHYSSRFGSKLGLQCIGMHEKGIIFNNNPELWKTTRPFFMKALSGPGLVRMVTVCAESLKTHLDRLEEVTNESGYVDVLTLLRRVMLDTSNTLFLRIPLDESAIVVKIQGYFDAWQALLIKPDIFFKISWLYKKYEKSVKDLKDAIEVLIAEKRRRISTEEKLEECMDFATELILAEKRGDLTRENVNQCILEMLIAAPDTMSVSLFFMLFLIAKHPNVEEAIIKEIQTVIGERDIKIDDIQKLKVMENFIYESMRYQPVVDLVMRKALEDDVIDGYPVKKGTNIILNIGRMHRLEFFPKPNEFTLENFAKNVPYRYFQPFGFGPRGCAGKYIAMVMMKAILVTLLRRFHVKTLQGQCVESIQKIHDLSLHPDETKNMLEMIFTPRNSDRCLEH
The data set is described as follows: Inhibition of human recombinant CYP19 using [1beta-3H]androstenedione as substrate at 500 nM. Conditions: recombinant CYP19, probe [1beta-3H]androstenedione.

The next data set has as its target T4, CYP17 (Homo sapiens, UniProt P05093).
T4 sequence (P05093 whole entry): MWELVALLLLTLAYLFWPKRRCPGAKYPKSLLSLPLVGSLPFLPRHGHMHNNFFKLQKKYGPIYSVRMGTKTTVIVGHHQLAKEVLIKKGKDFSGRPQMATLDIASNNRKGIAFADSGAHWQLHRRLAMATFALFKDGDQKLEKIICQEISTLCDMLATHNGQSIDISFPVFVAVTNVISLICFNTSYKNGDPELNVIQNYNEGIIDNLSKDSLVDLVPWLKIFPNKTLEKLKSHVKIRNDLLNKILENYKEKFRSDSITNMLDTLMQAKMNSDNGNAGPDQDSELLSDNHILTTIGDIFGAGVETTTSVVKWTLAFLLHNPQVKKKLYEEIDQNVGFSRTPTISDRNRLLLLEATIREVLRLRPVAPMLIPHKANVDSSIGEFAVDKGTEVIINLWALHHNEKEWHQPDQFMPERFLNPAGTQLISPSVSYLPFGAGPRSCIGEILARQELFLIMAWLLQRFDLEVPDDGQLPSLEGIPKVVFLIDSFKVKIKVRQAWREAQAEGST
The data set is described as follows: Inhibition of human recombinant CYP17 expressed in Escherichia coli using progesterone as substrate at 2 uM. The conditions noted are these: probe progesterone.

In data set [3] the target is T2, Cytochrome P450 11B2, mitochondrial. Nature of the data set: Inhibition of CYP11B2 […] cells using [3H]-11-deoxycorticosterone as substrate at 500 nM incubated for 1 hr prior to substrate addition measured after 45 mins by HPLC analysis. Type of data set: cell-based. The conditions noted are these: 0.75 h.
The next data set concerns the target T5, CYP11B1 (Homo sapiens, UniProt P15538).
T5 sequence (P15538 whole entry): T1 sequence (P15538 whole entry)
The description is as §1. Type of data set: cell-based. Conditions: human, V79MZ cells expressing CYP11B1, probe [3H]-11-deoxycorticosterone.

Data set [4] has as its target T6, Cytochrome P450 11B2, mitochondrial (Rattus norvegicus, UniProt P30099).
T6 sequence (P30099 whole entry): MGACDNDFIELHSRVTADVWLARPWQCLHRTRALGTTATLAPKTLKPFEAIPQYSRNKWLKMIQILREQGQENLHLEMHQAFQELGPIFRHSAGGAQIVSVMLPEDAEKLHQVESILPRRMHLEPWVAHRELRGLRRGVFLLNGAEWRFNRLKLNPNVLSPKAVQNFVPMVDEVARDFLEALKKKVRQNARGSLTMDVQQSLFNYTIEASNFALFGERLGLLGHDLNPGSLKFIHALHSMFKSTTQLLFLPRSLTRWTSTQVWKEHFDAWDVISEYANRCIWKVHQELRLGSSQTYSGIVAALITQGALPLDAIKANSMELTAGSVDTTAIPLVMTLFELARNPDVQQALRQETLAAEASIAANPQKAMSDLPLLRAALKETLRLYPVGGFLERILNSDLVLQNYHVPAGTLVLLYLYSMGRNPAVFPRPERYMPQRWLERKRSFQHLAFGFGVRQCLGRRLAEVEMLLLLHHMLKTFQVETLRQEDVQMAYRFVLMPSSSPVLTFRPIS
Nature of the data set: Inhibition of rat CYP11B2 using [3H]-11-deoxycorticosterone as substrate at 2 uM incubated for 1 hr prior to substrate addition measured after 7 hrs by HPLC analysis.

In data set [5] the target is T6, Cytochrome P450 11B2, mitochondrial. The data set is described as follows: Inhibition of rat CYP11B2 using [3H]-11-deoxycorticosterone as substrate at 0.5 uM incubated for 1 hr prior to substrate addition measured after 7 hrs by HPLC analysis. Conditions: read-out: INH.

Turning to `CN1C(=O)COc2cc(-c3cccnc3)ccc21`, the results for the half-maximal inhibitory concentration (IC50) in data set [1] and in data set [2] were 776 nM and 11 nM, respectively. In addition, the inhibition at 0.5 µM stood at 20% at CYP19 (aromatase) and 98% in data set [3]. At CYP17, the inhibition at 2 µM is < 10%.
For the compound `O=C1NCc2cc(-c3cccnc3)ccc2N1`, the IC50 came out at 120 nM in data set [1] and 228 nM in data set [2]. This compound gave an inhibition at 0.5 µM in data set [3] of 72%.
Regarding `O=C1CSc2cc(-c3cccnc3)ccc2N1`, it took 525 nM to reach half-maximal inhibition at CYP11B1 (IC50 at 25 min). This compound also registered an IC50 in data set [2] of 12 nM.
`O=C1CCc2cc(-c3cccnc3)ccc2N1`: at CYP11B1, the IC50 at 25 min was 6750 nM. The IC50 in data set [2] was determined as 28 nM. The inhibition at 0.5 µM on CYP19 (aromatase) came out at 31%. Also, the inhibition at 2 µM at CYP17 was 20%; in data set [4], < 5%.
For the compound `N#Cc1ccc(C2CCCc3cncn32)cc1` (stereo unspecified) [FADROZOLE], in data set [5], the inhibition at 0.5 µM is 67%.

Values taken from ChEMBL document CHEMBL3396957, “Heteroatom insertion into 3,4-dihydro-1H-quinolin-2-ones leads to potent and selective inhibitors of human and rat aldosterone synthase” (Eur J Med Chem, 2015).
